Target: T1, Serotonin 3 (5-HT3) receptor (Rattus norvegicus, UniProt P35563+Q9JJ16)
T1 sequence (P35563 whole entry): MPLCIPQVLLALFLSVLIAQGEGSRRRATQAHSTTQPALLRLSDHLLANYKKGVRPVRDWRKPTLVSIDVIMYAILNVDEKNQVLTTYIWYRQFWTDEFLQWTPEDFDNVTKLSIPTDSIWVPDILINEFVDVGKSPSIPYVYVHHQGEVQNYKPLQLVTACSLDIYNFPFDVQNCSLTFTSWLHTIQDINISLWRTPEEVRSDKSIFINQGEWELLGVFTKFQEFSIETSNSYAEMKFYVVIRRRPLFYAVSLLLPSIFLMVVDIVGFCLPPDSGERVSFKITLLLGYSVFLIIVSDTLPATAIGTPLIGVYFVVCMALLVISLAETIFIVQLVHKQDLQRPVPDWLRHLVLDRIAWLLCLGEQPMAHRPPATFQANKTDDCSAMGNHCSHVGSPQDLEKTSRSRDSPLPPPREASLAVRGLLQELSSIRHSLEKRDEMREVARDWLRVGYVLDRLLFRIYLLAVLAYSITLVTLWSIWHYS
T1 sequence (Q9JJ16 whole entry): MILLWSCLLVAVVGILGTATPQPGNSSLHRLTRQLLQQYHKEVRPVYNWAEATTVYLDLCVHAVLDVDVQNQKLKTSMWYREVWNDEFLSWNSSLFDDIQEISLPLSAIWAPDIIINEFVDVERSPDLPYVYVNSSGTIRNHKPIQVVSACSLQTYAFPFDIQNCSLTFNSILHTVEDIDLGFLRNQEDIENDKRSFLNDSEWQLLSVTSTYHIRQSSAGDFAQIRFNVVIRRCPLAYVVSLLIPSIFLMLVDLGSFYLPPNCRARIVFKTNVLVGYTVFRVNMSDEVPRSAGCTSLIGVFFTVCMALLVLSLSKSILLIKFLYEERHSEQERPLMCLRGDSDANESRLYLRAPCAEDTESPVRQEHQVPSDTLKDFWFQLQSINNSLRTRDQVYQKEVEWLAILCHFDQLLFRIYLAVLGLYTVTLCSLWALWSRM
Assay: In vitro displacement of [3H]-LY 278584 from rat cerebral cortex 5-hydroxytryptamine 3 receptor
Assay type: tissue-based

| Structure (SMILES) | Ki [nM] |
| --- | --- |
| CN1CCC(OC(=O)c2cccc3nc[nH]c23)CC1 | > 1000 |
| CN1C2CCCC1CC(NC(=O)c1cc(Cl)cc3nc[nH]c13)C2 (stereo not given) | 154 |
| O=C(NC1CN2CCC1CC2)c1cc(Cl)cc2nc[nH]c12 (stereo not given) | 0.29 |
| CN1C2CCCC1CC(OC(=O)c1cc(Cl)cc3[nH]cnc13)C2 (stereo not given) | 4.9 |
| CN1CCC(NC(=O)c2cc(Cl)cc3[nH]cnc23)CC1 | 29.5 |
| CN1CCC(NC(=O)c2cccc3[nH]cnc23)CC1 | 145 |
| CN1C2CCCC1CC(NC(=O)c1cccc3[nH]cnc13)C2 (stereo not given) | 6.1 |
| CN1C2CCCC1CC(OC(=O)c1cccc3nc[nH]c13)C2 (stereo not given) | 129 |
| O=C(NC1CN2CCC1CC2)c1cccc2nc[nH]c12 (stereo not given) | 3.7 |

Target: 5-hydroxytryptamine receptor 4 (Rattus norvegicus, UniProt Q62758)
Assay: Displacement of [3H]GR-113808 from rat striatum 5-hydroxytryptamine 4 receptor

Chain of 5-hydroxytryptamine receptor 4 (Q62758 whole entry): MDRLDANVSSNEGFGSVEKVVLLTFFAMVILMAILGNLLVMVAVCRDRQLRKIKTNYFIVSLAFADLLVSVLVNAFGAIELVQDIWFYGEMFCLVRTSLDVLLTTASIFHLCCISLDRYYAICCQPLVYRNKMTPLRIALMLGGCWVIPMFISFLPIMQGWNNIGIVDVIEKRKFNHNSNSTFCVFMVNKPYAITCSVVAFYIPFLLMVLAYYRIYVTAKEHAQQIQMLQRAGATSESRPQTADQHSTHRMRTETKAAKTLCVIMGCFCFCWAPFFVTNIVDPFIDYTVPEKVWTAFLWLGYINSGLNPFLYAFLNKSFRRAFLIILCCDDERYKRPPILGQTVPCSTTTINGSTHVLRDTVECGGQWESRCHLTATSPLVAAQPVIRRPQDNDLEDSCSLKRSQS

| Structure (SMILES) | Ki [nM] |
| --- | --- |
| CN1CCC(OC(=O)c2cccc3nc[nH]c23)CC1 | > 10000 |
| CN1C2CCCC1CC(NC(=O)c1cc(Cl)cc3nc[nH]c13)C2 (stereo not given) | 167 |
| O=C(NC1CN2CCC1CC2)c1cc(Cl)cc2nc[nH]c12 (stereo not given) | 168 |
| CN1C2CCCC1CC(OC(=O)c1cc(Cl)cc3[nH]cnc13)C2 (stereo not given) | > 1000 |
| CN1CCC(NC(=O)c2cc(Cl)cc3[nH]cnc23)CC1 | 54 |
| CN1CCC(NC(=O)c2cccc3[nH]cnc23)CC1 | 719 |
| CN1[C@@H]2CC[C@H]1C[C@@H](OC(=O)c1c[nH]c3ccccc13)C2 [TROPISETRON] | 63 |
| COc1cc(N)c(Cl)cc1C(=O)NC1CN2CCC1CC2 (stereo not given) [ZACOPRIDE] | 158 |
| CN1C2CCCC1CC(NC(=O)c1cccc3[nH]cnc13)C2 (stereo not given) | > 1000 |
| CN1C2CCCC1CC(OC(=O)c1cccc3nc[nH]c13)C2 (stereo not given) | > 10000 |
| O=C(NC1CN2CCC1CC2)c1cccc2nc[nH]c12 (stereo not given) | > 1000 |

From ChEMBL document CHEMBL1152116, “Novel benzimidazole-4-carboxylic acid derivatives as potent and selective 5-HT3 receptor ligands” (Bioorg Med Chem Lett, 1996)
